In brackets after ≈: the same amount, converted by molar mass. Several values for one entry are separate records, joined by “and”; a condition that tells them apart may be missing. Equal values may be shown once. Read-outs that look alike come from different tables or passages of the source.
Columns and labels:
Haemophilus influenzae = experiment: Susceptibility (MIC/MBC) of H. influenzae clinical isolates; assay type: cell-based; details: for MIC / MIC90: Haemophilus influenzae; for MIC90 / MIC Range: H. influenzae isolates of Table 6
[1] = tested on: methicillin-resistant Staphylococcus aureus (MRSA); experiment: Susceptibility (MIC/MBC) of MRSA clinical isolates; assay type: cell-based; details: for MBC50(15) / MIC50(15) / MBC90(26) / MIC90(26): 29 MRSA clinical isolates; for MBC50(15) / MIC50(15): rank 15; for MBC90(26) / MIC90(26): rank 26; for MBC / MIC: individual MRSA clinical isolates, values listed by rank order 1-29; for MIC90: Staphylococcus aureus
[2] = strain 30, nanoemulsion values as μg CPC/ml or μg BA/ml
[3] = strain 32, nanoemulsion values as μg CPC/ml or μg BA/ml
[4] = strain 33, nanoemulsion values as μg CPC/ml or μg BA/ml
[5] = strain 34, nanoemulsion values as μg CPC/ml or μg BA/ml
[6] = strain 35, nanoemulsion values as μg CPC/ml or μg BA/ml
[7] = strain 36, nanoemulsion values as μg CPC/ml or μg BA/ml
[8] = strain 37, nanoemulsion values as μg CPC/ml or μg BA/ml
[9] = strain 38, nanoemulsion values as μg CPC/ml or μg BA/ml
[10] = strain 41, nanoemulsion values as μg CPC/ml or μg BA/ml
[11] = strain 42, nanoemulsion values as μg CPC/ml or μg BA/ml
[12] = strain 49247, nanoemulsion values as μg CPC/ml (P4075EC, W205EC) or μg BA/ml (W205GBA2)
[13] = nanoemulsion values as μg CPC/ml or μg BA/ml

Row | SMILES | MIC (Haemophilus influenzae; [2]) | MIC (Haemophilus influenzae; [3]) | MIC (Haemophilus influenzae; [4]) | MIC (Haemophilus influenzae; [5]) | MIC (Haemophilus influenzae; [6]) | MIC (Haemophilus influenzae; [7]) | MIC (Haemophilus influenzae; [8]) | MIC (Haemophilus influenzae; [9]) | MIC (Haemophilus influenzae; [10]) | MIC (Haemophilus influenzae; [11]) | MIC (Haemophilus influenzae; [12]) | MIC90 (Haemophilus influenzae; [13]) | MIC50(15) [1] | MIC90(26) [1] | MBC [1] | MIC [1] | further results
1 | CC1(C)S[C@@H]2[C@H](NC(=O)[C@H](N)c3ccccc3)C(=O)N2[C@H]1C(=O)O [ampicillin] | 0.25 µg/mL (≈ 0.715 µM) | 32 µg/mL (≈ 91.6 µM) | 0.25 µg/mL (≈ 0.715 µM) | > 32 µg/mL | 0.25 µg/mL (≈ 0.715 µM) | 0.125 µg/mL (≈ 0.358 µM) | > 32 µg/mL | 0.25 µg/mL (≈ 0.715 µM) | > 32 µg/mL | > 32 µg/mL | 4 µg/mL (≈ 11.4 µM) | > 32 µg/mL |  |  |  |  | 
2 | C/C(=C\C(=O)OCCCCCCCCC(=O)O)C[C@@H]1OC[C@H](C[C@@H]2O[C@H]2[C@@H](C)[C@H](C)O)[C@@H](O)[C@H]1O [Mup] |  |  |  |  |  |  |  |  |  |  |  |  | 0.25 µg/mL (≈ 0.499 µM) | >64 µg/mL | >64 μg/ml (9×) and >8 μg/ml and >4 μg/ml (5×) and >2 μg/ml (11×) and 1 μg/ml (3×) | >64 μg/ml (8×) and 16 μg/ml and 0.25 μg/ml (9×) and 0.125 μg/ml (11×) | MBC50(15) [1]: >2 µg/mL; MBC90(26) [1]: >64 µg/mL
3 | CC[C@H]1OC(=O)[C@H](C)[C@@H](O[C@H]2C[C@@](C)(OC)[C@@H](O)[C@H](C)O2)[C@H](C)[C@@H](O[C@@H]2O[C@H](C)C[C@H](N(C)C)[C@H]2O)[C@](C)(O)C[C@@H](C)C(=O)[C@H](C)[C@@H](O)[C@]1(C)O [Eryth] |  |  |  |  |  |  |  |  |  |  |  |  | 64 µg/mL (≈ 87.2 µM) |  | 64 μg/ml and >4 μg/ml (4×) | 64 μg/ml (6×) and 32 μg/ml (3×) and 16 μg/ml and 8 μg/ml and 0.25 μg/ml (4×) | 
4 | CN[C@H](CC(C)C)C(=O)N[C@H]1C(=O)N[C@@H](CC(N)=O)C(=O)N[C@H]2C(=O)N[C@H]3C(=O)N[C@H](C(=O)N[C@H](C(=O)O)c4cc(O)cc(O)c4-c4cc3ccc4O)[C@H](O)c3ccc(c(Cl)c3)Oc3cc2cc(c3O[C@@H]2O[C@H](CO)[C@@H](O)[C@H](O)[C@H]2O[C@H]2C[C@](C)(N)[C@H](O)[C@H](C)O2)Oc2ccc(cc2Cl)[C@H]1O [vancomycin] |  |  |  |  |  |  |  |  |  |  |  |  |  |  |  |  | cidality ([1]; MRSA, ratio of MBC90/MIC90): bactericidal (A compound or nanoemulsion is defined as bactericidal if its MBC/MIC ratio was ˜4); MIC90 ([1]; MRSA): 1 µg/mL (≈ 0.69 µM)
5 | CC(=O)O.NCc1ccc(S(N)(=O)=O)cc1 [Maf. Acet] |  |  |  |  |  |  |  |  |  |  |  |  | >128 µg/mL | >128 µg/mL |  | >128 μg/ml (28×) and 128 μg/ml | 
6 | C[C@H]1c2cccc(O)c2C(=O)C2=C(O)[C@]3(O)C(=O)C(C(N)=O)=C(O)[C@@H](N(C)C)[C@@H]3[C@@H](O)[C@@H]21 [doxycycline] |  |  |  |  |  |  |  |  |  |  |  |  |  |  |  |  | MIC90 ([1]; MRSA isolates, read-out: MIC90): 4 µg/mL (≈ 9 µM)
7 | C[C@H]1COc2c(N3CCN(C)CC3)c(F)cc3c(=O)c(C(=O)O)cn1c23 [Levo] |  |  |  |  |  |  |  |  |  |  |  |  | 8 µg/mL (≈ 22.1 µM) | 32 µg/mL (≈ 88.6 µM) | >64 μg/ml (6×) and 64 μg/ml (2×) and >32 μg/ml and 32 μg/ml (5×) and 16 μg/ml (3×) and 8 μg/ml (4×) and 4 μg/ml and 1 μg/ml and 0.5 μg/ml and 0.25 μg/ml (5×) | >64 μg/ml (2×) and 32 μg/ml (5×) and 16 μg/ml (4×) and 8 μg/ml (5×) and 4 μg/ml (5×) and 2 μg/ml and 0.5 μg/ml and 0.25 μg/ml (3×) and 0.125 μg/ml (3×) | MBC50(15) [1]: 16 µg/mL (≈ 44.3 µM); MBC90(26) [1]: >64 µg/mL
8 | CCC[C@@H]1C[C@@H](C(=O)N[C@@H]([C@H]2O[C@H](SC)[C@H](O)[C@@H](O)[C@H]2O)[C@H](C)Cl)N(C)C1 [clindamycin] | 16 µg/mL (≈ 37.6 µM) | 8 µg/mL (≈ 18.8 µM) | 16 µg/mL (≈ 37.6 µM) | 16 µg/mL (≈ 37.6 µM) | 8 µg/mL (≈ 18.8 µM) | 16 µg/mL (≈ 37.6 µM) | 4 µg/mL (≈ 9.41 µM) | 16 µg/mL (≈ 37.6 µM) | 8 µg/mL (≈ 18.8 µM) | 4 µg/mL (≈ 9.41 µM) | 8 µg/mL (≈ 18.8 µM) | 16 µg/mL (≈ 37.6 µM) |  |  |  |  | MIC90 ([1]; MRSA isolates, read-out: MIC90): > 64 µg/mL; MIC Range (Haemophilus influenzae; [13]): 4 to 16 µg/mL
9 | CC[C@H]1OC(=O)[C@H](C)[C@@H](O[C@H]2C[C@@](C)(OC)[C@@H](O)[C@H](C)O2)[C@H](C)[C@@H](O[C@@H]2O[C@H](C)C[C@H](N(C)C)[C@H]2O)[C@](C)(O)C[C@@H](C)CN(C)[C@H](C)[C@@H](O)[C@]1(C)O [azithromycin] | 2 µg/mL (≈ 2.67 µM) | 8 µg/mL (≈ 10.7 µM) | 1 µg/mL (≈ 1.34 µM) | 1 µg/mL (≈ 1.34 µM) | 1 µg/mL (≈ 1.34 µM) | 2 µg/mL (≈ 2.67 µM) | 1 µg/mL (≈ 1.34 µM) | 1 µg/mL (≈ 1.34 µM) | 2 µg/mL (≈ 2.67 µM) | 1 µg/mL (≈ 1.34 µM) | 1 µg/mL (≈ 1.34 µM) | 2 µg/mL (≈ 2.67 µM) |  |  |  |  | susceptibility of the majority of isolates by MIC90 values (Haemophilus influenzae; H. influenzae): susceptible; MIC Range (Haemophilus influenzae; [13]): 1 to 8 µg/mL
